Measured values from patent US4004028A, “Phenoxypropanolamines” (SmithKline Corporation, priority 1975, dated 1977).
Values after ≈ are worked out from the molar mass of the structure shown.

Columns and labels:
guinea pig right atria = test: effect on rate of spontaneously beating right atria of the guinea pig, β-stimulant effect on cardiac muscle; type: cell-based; conditions: Cavia porcellus, in vitro, read-out: ED25, increasing the rate of contraction of guinea pig right atria
Description: (§1) Two in vitro test systems used for determining selective β-stimulant activity are: (1) effect on spontaneous tone of guinea pig tracheal chain preparations as a measure of β-stimulant (direct relaxant) effect on airway smooth muscle, and (2) effect on rate of spontaneously beating right atria of the guinea pig as a measure of β-stimulant effect on cardiac muscle.

[1] = test system: guinea pig tracheal chain preparations; test: effect on spontaneous tone of guinea pig tracheal chain (ring) preparations, β-stimulant direct relaxant effect on airway smooth muscle; type: cell-based; conditions: for absolute separation ratio: atrial ED25 versus tracheal ED50, in vitro guinea pig preparations
Description: as §1

| SMILES | EC25 (guinea pig right atria) | EC50 ([1]; Cavia porcellus, in vitro, guinea pig tracheal ring preparation, read-out: ED50, relaxes the spontaneous tone of guinea pig tracheal ring preparation) | absolute separation ratio [1] | fold improvement of absolute separation ratio compared to d, l-isoproterenol ([1]; relative to d, l-isoproterenol (absolute separation ratio = 0.5)) |
| --- | --- | --- | --- | --- |
| CC(C)(C)NCC(O)COc1ccc(O)c(NS(C)(=O)=O)c1 (centres unmarked) [3-(4-hydroxy-3-methanesulfonamidophenoxy)-1-(tert-butylamino)-2-propanol] | 0.409 µg/mL (≈ 1.23 µM) | 0.00219 µg/mL (≈ 0.00659 µM) | 186 | 372 fold |
| CC(C)NCC(O)c1ccc(O)c(O)c1 (stereo not drawn) [d, l-isoproterenol, reference compound] | – | – | 0.5 | – |
